In publication PMC9182199, “Borylated 2,3,4,5-Tetrachlorophthalimide and Their 2,3,4,5-Tetrachlorobenzamide Analogues: Synthesis, Their Glycosidase Inhibition and Anticancer Properties in View to Boron Neutron Capture Therapy” (Molecules, 2022):
Read-outs that look alike come from different tables or passages of the source.

Assays:
[1] = molecular target: rice α-glucosidase (Oryza sativa subsp. japonica, UniProt Q653V7); experiment: Glycosidase inhibition, laboratory 1: rice α-glucosidase; assay type: biochemical; details: methanol
[2] = system: bovine liver β-glucuronidase; experiment: Glycosidase inhibition, laboratory 1: bovine liver β-glucuronidase; assay type: biochemical; details: methanol
Text: (§1) The enzymes α-glucosidase (from yeast), β-glucosidases (from almond and bovine liver), α-galactosidase (from coffee beans), β-galactosidase (from bovine liver), α-mannosidase (from Jack bean), β-mannosidase (from snail), α-L-rhamnosidase (from Penicillium decumbens), α-L-fucosidase (from bovine kidney), trehalase (from porcine kidney), β-glucuronidases (from E. coli and bovine liver), amyloglucosidase (from A. niger), para-nitrophenyl glycosides, and various disaccharides were purchased from Sigma-Aldrich Co (St Louis, MO, USA).
(§2) Brush border membranes were prepared from the rat small intestine according to the method of Kessler et al. and were assayed at pH 6.8 for rat intestinal maltase using maltose. For rat intestinal maltase, porcine kidney trehalase, and A. niger amyloglucosidase activities, the reaction mixture contained 25 mM maltose and the appropriate amount of enzyme, and the incubations were performed for 10–30 min at 37 °C. The reaction was stopped by heating at 100 °C for 3 min. After centrifugation (600× g; 10 min), the resulting reaction mixture was added to the Glucose CII-test Wako (Wako Pure Chemical Ind., Osaka, Japan). The absorbance at 505 nm was measured to determine the amount of the released D-glucose. Other glycosidase activities were determined using an appropriate para-nitrophenyl glycoside as substrate at the optimum pH of each enzyme. The reaction mixture contained 2 mM of the substrate and the appropriate amount of enzyme. The reaction was stopped by addition of 400 mM Na2CO3. The released para-nitrophenol was measured spectrometrically at 400 nm. All reactions run in methanol.

[3] = molecular target: T1, A. niger amyloglucosidase (Aspergillus niger, UniProt P69328); experiment: Glycosidase inhibition, laboratory 1: amyloglucosidase; assay type: biochemical; details: for inhibition at 10 µM: read-out: inhibition % at 10 μM; for inhibition at 100 µM: read-out: inhibition % at 100 μM
T1 construct: purchased Sigma-Aldrich Co
Text: as §1, §2

[4] = system: Penicillium decumbens α-L-rhamnosidase; experiment: Glycosidase inhibition, laboratory 1: α-L-rhamnosidase; assay type: biochemical; details: methanol
Text: as §1, §2

[5] = system: snail β-mannosidase; experiment: Glycosidase inhibition, laboratory 1: snail β-mannosidase; assay type: biochemical; details: methanol
Text: as §1, §2

[6] = Appearance of the 1 mg/mL aqueous solution tested; assay type: physicochemical; details: 1 mg/mL in water
[7] = system: Du145; experiment: MTT cell growth inhibition: Du145; assay type: cell-based; details: 72 h; for Percentage (%) Cell Growth Inhibition in response to 25 µM of Drug: Du145 prostate carcinoma; for inhibition at 25 µM: Homo sapiens, DU-145, Du145 prostate carcinoma, read-out: Percentage (%) Cell Growth Inhibition in response to 25 µM of Drug
Procedure: (§3) All test agents were prepared as stock solutions (20 mM) in dimethyl sulfoxide (DMSO) and stored at −20 °C. Cell lines used in the study included HT29 (colorectal carcinoma); U87, SJ-G2, (glioblastoma); MCF-7, (breast carcinoma); A2780 (ovarian carcinoma); H460 (lung carcinoma); A431 (skin carcinoma); Du145 (prostate carcinoma); BE2-C (neuroblastoma); MiaPaCa-2 (pancreatic carcinoma); and SMA560 (spontaneous murine astrocytoma), together with the one non-tumour-derived normal breast cell line (MCF10A). All cell lines were incubated in a humidified atmosphere 5% CO2 at 37 °C. The cancer cell lines were maintained in Dulbecco’s modified Eagle’s medium (DMEM; Sigma, Australia) supplemented with foetal bovine serum (10%), sodium pyruvate (10 mM), penicillin (100 IUmL^−1), streptomycin (100 µg mL^−1) and L-glutamine (2 mM).
(§4) Growth inhibition was determined by plating cells in duplicate in medium (100 µL) at a density of 2500–4000 cells per well in 96-well plates. On day 0 (24 h after plating), when the cells were in logarithmic growth, medium (100 µL) with or without the test agent was added to each well. After 72 h drug exposure, growth inhibitory effects were evaluated using the MTT (3-(4,5-dimethyltiazol-2-yl)-2,5-diphenyltetrazolium bromide) assay and absorbance read at 540 nm. The percentage growth inhibition was calculated at a fixed concentration of 25 µM, based on the difference between the optical density values on day 0 and those at the end of drug exposure. Each data point is the mean ± the standard error of the mean (SEM) calculated from three replicates which were performed on separate occasions and separate cell line passages.

[8] = system: BE2-C; experiment: MTT cell growth inhibition: BE2-C; assay type: cell-based; details: BE2-C neuroblastoma, 72 h; for inhibition at 25 µM: Homo sapiens, BE(2)-C, read-out: Percentage (%) Cell Growth Inhibition in response to 25 µM of Drug
Procedure: as §3, §4

[9] = system: MCF-7; experiment: MTT cell growth inhibition: MCF-7; assay type: cell-based; details: MCF-7 breast carcinoma; for Percentage (%) Cell Growth Inhibition in response to 25 µM of Drug / inhibition at 25 µM: 72 h, MTT; for inhibition at 25 µM / GI50: Homo sapiens; for inhibition at 25 µM: MCF7, read-out: Percentage (%) Cell Growth Inhibition in response to 25 µM of Drug; for GI50: MCF7, read-out: GI50 = Concentration (µM) that inhibits cell growth by 50%, dose response
Procedure: as §3, §4

[10] = A. niger amyloglucosidase, 100 μM, methanol

Chain of rice α-glucosidase (Q653V7 34-885): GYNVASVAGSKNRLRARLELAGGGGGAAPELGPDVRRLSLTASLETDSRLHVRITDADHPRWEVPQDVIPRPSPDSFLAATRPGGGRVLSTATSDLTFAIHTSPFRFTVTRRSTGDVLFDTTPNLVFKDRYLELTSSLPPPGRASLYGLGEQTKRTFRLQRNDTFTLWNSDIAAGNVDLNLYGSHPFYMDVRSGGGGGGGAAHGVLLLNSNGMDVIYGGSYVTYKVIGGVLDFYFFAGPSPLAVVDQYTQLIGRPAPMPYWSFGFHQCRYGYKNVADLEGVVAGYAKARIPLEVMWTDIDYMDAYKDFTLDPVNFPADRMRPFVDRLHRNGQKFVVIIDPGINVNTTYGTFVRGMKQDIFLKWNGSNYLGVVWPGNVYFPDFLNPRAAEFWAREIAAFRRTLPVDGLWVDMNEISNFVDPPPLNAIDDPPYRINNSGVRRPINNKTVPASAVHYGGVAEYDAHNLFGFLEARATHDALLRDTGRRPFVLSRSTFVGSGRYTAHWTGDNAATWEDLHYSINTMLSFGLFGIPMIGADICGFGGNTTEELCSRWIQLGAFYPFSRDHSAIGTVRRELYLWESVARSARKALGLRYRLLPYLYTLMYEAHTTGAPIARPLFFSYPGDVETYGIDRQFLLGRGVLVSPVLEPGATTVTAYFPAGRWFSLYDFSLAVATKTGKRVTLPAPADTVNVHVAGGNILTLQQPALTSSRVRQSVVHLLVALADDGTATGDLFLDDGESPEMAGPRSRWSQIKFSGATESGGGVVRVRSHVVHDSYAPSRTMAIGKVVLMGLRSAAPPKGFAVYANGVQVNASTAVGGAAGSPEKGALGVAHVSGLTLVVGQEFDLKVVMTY
T1 sequence (P69328 25-640): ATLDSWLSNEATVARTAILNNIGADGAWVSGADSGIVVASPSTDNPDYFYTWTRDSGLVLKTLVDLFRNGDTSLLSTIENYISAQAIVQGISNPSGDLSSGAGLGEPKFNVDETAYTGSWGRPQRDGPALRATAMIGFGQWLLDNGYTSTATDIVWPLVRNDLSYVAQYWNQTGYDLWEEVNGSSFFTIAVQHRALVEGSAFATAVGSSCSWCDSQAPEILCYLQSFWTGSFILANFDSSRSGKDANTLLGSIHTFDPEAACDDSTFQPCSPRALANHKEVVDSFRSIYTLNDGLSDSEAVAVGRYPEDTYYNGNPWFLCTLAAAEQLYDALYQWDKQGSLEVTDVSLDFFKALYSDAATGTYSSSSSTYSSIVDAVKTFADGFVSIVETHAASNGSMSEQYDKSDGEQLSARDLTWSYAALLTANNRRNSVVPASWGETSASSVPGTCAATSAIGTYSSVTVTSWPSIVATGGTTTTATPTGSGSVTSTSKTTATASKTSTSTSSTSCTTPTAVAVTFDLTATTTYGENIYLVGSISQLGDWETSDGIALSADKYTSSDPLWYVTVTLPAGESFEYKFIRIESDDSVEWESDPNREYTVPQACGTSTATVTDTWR

Row | Molecule | Appearance of the 1 mg/mL Aqueous Solution Tested [6] | inhibition % at 100 μM [2] | inhibition % at 100 μM [4] | inhibition % at 100 μM [5] | inhibition at 25 µM [7] [%] | inhibition at 25 µM [8] [%] | inhibition at 25 µM [9] [%] | GI50 [9] [µM] | inhibition at 100 µM ([1]; 100 μM) [%] | other results
1 | Borocaptate sodium [BSH, reference compound] | in solution | – | – | – | – | – | – | – | – | inhibition % at 1000 μM ([1]; 1000 μM): ^aNI ^b(0%); inhibition % at 1000 μM ([2]; 1000 μM): ^aNI ^b (19.6%); inhibition % at 1000 μM ([3]; A. niger amyloglucosidase, 1000 μM, methanol): ^aNI ^b (0%); inhibition % at 1000 μM ([4]; 1000 μM): ^aNI ^b (0.2%); inhibition % at 1000 μM ([5]; 1000 μM): ^aNI ^b (19.2%); Percentage (%) Cell Growth Inhibition in response to 25 µM of Drug [7]: 0 ± 8%; Percentage (%) Cell Growth Inhibition in response to 25 µM of Drug [8]: 10 ± 6%; Percentage (%) Cell Growth Inhibition in response to 25 µM of Drug [9]: 15 ± 3%
2 | N[C@@H](Cc1ccc(B(O)O)cc1)C(=O)O [BPA, 4-borono-L-phenylalanine, reference compound] | some in solution with undissolved sediment | ^cNI ^d (7.4%) | ^cNI ^d (0%) | ^cNI ^d (2.1%) | 19 ± 10 | 13 ± 10 | < 0 | – | – | –
3 | CC1(C)OB(c2ccccc2NC(=O)c2cc(Cl)c(Cl)c(Cl)c2Cl)OC1(C)C [ortho 5, 2,3,4,5-Tetrachloro-N-(2-(4,4,5,5-tetramethyl-1,3,2-dioxaborolan-2-yl)phenyl)benzamide] | some in solution with undissolved sediment | – | – | – | > 100 | > 100 | > 100 | 12 ± 1.2 | – | inhibition at 10 µM [1]: 0%; inhibition % at 10 μM [2]: ^cNI ^d (0%); inhibition at 10 µM ([3]; A. niger amyloglucosidase, 10 μM, methanol): 0%; inhibition % at 10 μM [4]: ^cNI ^d (0%); inhibition % at 10 μM [5]: ^cNI ^d (0%)
4 | CC1(C)OB(c2ccc(CN3C(=O)c4c(Cl)c(Cl)c(Cl)c(Cl)c4C3=O)cc2)OC1(C)C [para 3, 4,5,6,7-Tetrachloro-2-(4-(4,4,5,5-tetramethyl-1,3,2-dioxaborolan-2-yl)benzyl)isoindoline-1,3-dione] | some in solution with undissolved sediment | ^aNI ^b (1.0%) | ^aNI ^b (0%) | ^aNI ^b (0%) | > 100 | > 100 | > 100 | 3 ± 1.3 | 5.6 | inhibition at 100 µM [3]: 1%
5 | N[C@@H](Cc1ccc(B(O)O)cc1)C(=O)O [^10B-BPA, reference compound] | some in solution with undissolved sediment | ^cNI ^d (0%) | ^cNI ^d (0%) | ^cNI ^d (0.3%) | – | – | – | – | – | inhibition % at 100 μM ([1]; 100 μM): ^cNI ^d(0%); inhibition % at 100 μM [3, 10]: ^cNI ^d (0%); Percentage (%) Cell Growth Inhibition in response to 25 µM of Drug [7]: 15 ± 9%; Percentage (%) Cell Growth Inhibition in response to 25 µM of Drug [8]: 10 ± 6%; Percentage (%) Cell Growth Inhibition in response to 25 µM of Drug [9]: 1 ± 3%
6 | CC1(C)OB(c2cccc(CN3C(=O)c4c(Cl)c(Cl)c(Cl)c(Cl)c4C3=O)c2)OC1(C)C [meta 3, 4,5,6,7-Tetrachloro-2-(3-(4,4,5,5-tetramethyl-1,3,2-dioxaborolan-2-yl)benzyl)isoindoline-1,3-dione] | opaque suspension | – | – | – | 43 ± 13 | 45 ± 2 | 67 ± 7 | 23 ± 3.7 | – | inhibition at 10 µM [1]: 5.1%; inhibition % at 10 μM [2]: ^cNI ^d (5.7%); inhibition at 10 µM [3]: 3.2%; inhibition % at 10 μM [4]: ^cNI ^d (0%); inhibition % at 10 μM [5]: ^cNI ^d (1.1%)
7 | CC1(C)OB(c2ccccc2CNC(=O)c2cc(Cl)c(Cl)c(Cl)c2Cl)OC1(C)C [ortho 8, 2,3,4,5-tetrachloro-N-(2-(4,4,5,5-tetramethyl-1,3,2-dioxaborolan-2-yl)benzyl)benzamide] | some in solution with undissolved sediment | ^aNI ^b (16.3%) | ^aNI ^b (6.2%) | ^aNI ^b (39%) | < 0 | 2 ± 5 | < 0 | – | 0 | inhibition at 100 µM [3]: 0%
8 | CC1(C)OB(c2cccc(NC(=O)c3cc(Cl)c(Cl)c(Cl)c3Cl)c2)OC1(C)C [meta 5, 2,3,4,5-tetrachloro-N-(3-(4,4,5,5-tetramethyl-1,3,2-dioxaborolan-2-yl)phenyl)benzamide] | some in solution with undissolved sediment | ^aNI ^b (6.0%) | ^aNI ^b (2.2%) | ^aNI ^b (39.1%) | < 0 | 3 ± 4 | 16 ± 4 | – | 45.5 | inhibition at 100 µM [3, 10]: 2.8%
9 | CC1(C)OB(c2ccc(NC(=O)c3cc(Cl)c(Cl)c(Cl)c3Cl)cc2)OC1(C)C [para 5, 2,3,4,5-tetrachloro-N-(4-(4,4,5,5-tetramethyl-1,3,2-dioxaborolan-2-yl)phenyl)benzamide] | some in solution with undissolved sediment | ^aNI ^b (36.5%) | ^aNI ^b (14.4%) | ^aNI ^b (30.4%) | 1 ± 13 | 54 ± 1 | 42 ± 5 | – | 0 | inhibition at 100 µM [3, 10]: 0%
